Test systems include SN12C; SK-OV-3; PC-3; MCF7; ACHN; CCRF-CEM; EKVX; HOP-62; UO-31; HT-29; M14; MOLT-4; NCI-H23; RXF 393; SF-539; SW-620; Hs-578T; LOX IMVI; IGROV-1; Malme-3M.
What all share (experiment): inhibition of tumour cell growth, NCI panel, 48 h

This note sets out measurements from ChEMBL document CHEMBL1201862, “PubChem BioAssay data set” (2004).

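Results reflect a 48-hour exposure of cells in 96-well plates to compound at five concentrations. At the GI50, growth is halved.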 Active and inactive are the calls of the source. Cut-off read from the data, not from the text of the source: active = GI50 up to about 1.1 µM and inactive = higher. Bounds are passed on as bounds.

For `Nc1nc(N)c2cc(Sc3ccc4ccccc4c3)ccc2n1`, the GI50 in the assay with SN12C is 1.03 µM (active); in the assay on SK-OV-3, 13.8 µM (inactive); in the assay with PC-3 it was 1.87 µM (inactive); with MCF7, 1.3 µM (inactive); in the assay with ACHN it was 0.509 µM (active); in the assay with CCRF-CEM, 0.705 µM (active). For the same compound, the GI50 in the assay on EKVX is 2.96 µM (inactive); with HOP-62, 3.56 µM (inactive); with UO-31, 2.76 µM (inactive); in the assay with HT-29 it was 1.79 µM (inactive); in the assay on M14, 1.23 µM (inactive); with MOLT-4, 2.8 µM (inactive). For the same compound, the GI50 with NCI-H23 is 5.82 µM (inactive); with RXF 393 it was 3.32 µM (inactive); in the assay with SF-539, 1.73 µM (inactive); with SW-620 it was 0.729 µM (active); in the assay on Hs-578T, 11.9 µM (inactive); with LOX IMVI, 0.627 µM (active).
For `O=C(NCCc1ccccc1)c1c(O)nc2ccccc2c1O`, the GI50 with SN12C, in the assay on PC-3, with MCF7, with ACHN, with IGROV-1 and with CCRF-CEM was > 100 µM (inactive) each time. Besides, the GI50 in the assay with EKVX, in the assay on HOP-62, with UO-31, in the assay with HT-29, in the assay with MOLT-4 and in the assay with NCI-H23 was > 100 µM (inactive) each time. Also, the GI50 in the assay on RXF 393, in the assay with SF-539, in the assay with SW-620, with Hs-578T, with Malme-3M and with LOX IMVI was > 100 µM (inactive) in each case.
Consider `c1ccc2c(c1)C(=Nc1ccc(N=C3c4ccccc4-c4ccccc43)cc1)c1ccccc1-2`, for which the GI50 in the assay with SN12C, in the assay on SK-OV-3, in the assay with PC-3, in the assay with MCF7, in the assay with IGROV-1 and with CCRF-CEM was > 100 µM (inactive) in each case. Moreover, the GI50 with EKVX, in the assay on HOP-62, with UO-31, in the assay with HT-29, in the assay with M14 and in the assay with MOLT-4 was > 100 µM (inactive) in each case. In addition, the GI50 in the assay on NCI-H23, in the assay on RXF 393, with SW-620, with Hs-578T, with Malme-3M and in the assay on LOX IMVI was > 100 µM (inactive) in each case.
With `O=C(NNC(=S)Nc1ccccc1)c1cc(-c2ccccc2)nc2ccccc12`, the GI50 was 20.8 µM (inactive) with SN12C; 26.8 µM (inactive) in the assay on SK-OV-3; 18.6 µM (inactive) with PC-3; 21.4 µM (inactive) in the assay with MCF7; 27.5 µM (inactive) in the assay on ACHN; 26.7 µM (inactive) in the assay on IGROV-1. Besides, the GI50 with CCRF-CEM was 12.4 µM (inactive); with HOP-62, 15.7 µM (inactive); in the assay on UO-31, 15.2 µM (inactive); in the assay on HT-29, 28.6 µM (inactive); in the assay on M14, 14.9 µM (inactive); in the assay on MOLT-4, 11.4 µM (inactive). The GI50 in the assay with NCI-H23 was 16.3 µM (inactive); in the assay on RXF 393, 19 µM (inactive); in the assay with SF-539, 21.4 µM (inactive); in the assay on SW-620 it was 18.7 µM (inactive); in the assay on Hs-578T it was 25.1 µM (inactive); in the assay with Malme-3M, 23.3 µM (inactive).
For `CC(C)[S+]1C2=C(CC(C)(C)CC2=O)[N-]c2ccccc21` (stereo not given), the GI50 in the assay with SN12C, in the assay on SK-OV-3, in the assay on PC-3, in the assay on MCF7, with ACHN and with IGROV-1 was > 100 µM (inactive) each time. Further, the GI50 in the assay on CCRF-CEM, in the assay on EKVX, in the assay with HOP-62, in the assay on UO-31, with HT-29 and with M14 was > 100 µM (inactive) in each case. Also, the GI50 in the assay on MOLT-4, in the assay with NCI-H23, with RXF 393, in the assay with SW-620, in the assay with Hs-578T and with Malme-3M was > 100 µM (inactive) throughout. Moreover, the GI50 in the assay on LOX IMVI is > 100 µM (inactive).
With `NC(=O)N(O)c1cccc(Br)c1`, the GI50 in the assay with SN12C, with SK-OV-3, in the assay with PC-3, in the assay with MCF7, in the assay with ACHN and with IGROV-1 was > 100 µM (inactive) each time. For the same compound, the GI50 in the assay on CCRF-CEM, in the assay with EKVX, in the assay on HOP-62, in the assay on UO-31, in the assay with HT-29 and with M14 was > 100 µM (inactive) throughout. In addition, the GI50 in the assay on MOLT-4, with NCI-H23, in the assay on RXF 393, in the assay with SF-539, in the assay with SW-620 and in the assay with Hs-578T was > 100 µM (inactive) throughout. In the assay with LOX IMVI, the GI50 was > 100 µM (inactive).
Regarding `COc1ccc(-c2cc(-c3ccccc3)[nH]c(=S)c2C#N)cc1`, the GI50 in the assay on SN12C was 41.2 µM (inactive); in the assay with SK-OV-3, 30.8 µM (inactive); in the assay with PC-3, 19.9 µM (inactive); with MCF7, 30.7 µM (inactive); in the assay with ACHN, 33 µM (inactive); in the assay with IGROV-1 it was 26.4 µM (inactive). The GI50 with CCRF-CEM is 17.3 µM (inactive); with EKVX, 55.8 µM (inactive); in the assay on HOP-62, 3.85 µM (inactive); with UO-31 it was 20.6 µM (inactive); in the assay on HT-29 it was 36.1 µM (inactive); in the assay with M14 it was 25.4 µM (inactive). In addition, the GI50 in the assay with MOLT-4 is 17.4 µM (inactive); in the assay on NCI-H23, 21.8 µM (inactive); with RXF 393 it was 39.8 µM (inactive); in the assay on SW-620, 33 µM (inactive); in the assay with Hs-578T, 39.2 µM (inactive); in the assay with Malme-3M it was 32.4 µM (inactive). Moreover, the GI50 with LOX IMVI is 20.7 µM (inactive).
On to `Cc1cccc(N2C(=O)C3c4[nH]c5ccccc5c4C4CCC(C(C)(C)C)CC4C3C2=O)c1` (stereo not given), for which the GI50 was 14.2 µM (inactive) in the assay with SN12C; 12.4 µM (inactive) in the assay on PC-3; 12 µM (inactive) with MCF7; 4.95 µM (inactive) with ACHN; 4.13 µM (inactive) in the assay on IGROV-1; 8.57 µM (inactive) with CCRF-CEM. In addition, the GI50 is 14.4 µM (inactive) in the assay with EKVX; 3.54 µM (inactive) in the assay on HOP-62; 15.3 µM (inactive) with UO-31; 13.5 µM (inactive) in the assay with HT-29; 13.3 µM (inactive) with M14; 8.83 µM (inactive) in the assay on MOLT-4. The GI50 was 16 µM (inactive) with NCI-H23; 12.4 µM (inactive) in the assay with RXF 393; 11.8 µM (inactive) with SW-620; 9.98 µM (inactive) in the assay on Hs-578T; 13 µM (inactive) in the assay with Malme-3M; 3.32 µM (inactive) with LOX IMVI.
With `Cc1ccc(NC(=O)/C(Cc2cc(=O)oc3cc(O)ccc23)=N\NC(C)(C)C)cc1C`, the GI50 with SN12C, in the assay on SK-OV-3, in the assay with PC-3, with MCF7, in the assay with ACHN and with CCRF-CEM was > 100 µM (inactive) throughout. In addition, the GI50 with UO-31, with HT-29, in the assay with M14, in the assay with MOLT-4, in the assay on NCI-H23 and in the assay on RXF 393 was > 100 µM (inactive) each time. Further, the GI50 in the assay on SF-539, in the assay with SW-620, in the assay on Hs-578T and in the assay on LOX IMVI was > 100 µM (inactive) each time.
On to `COC(=O)c1ccccc1/C=C1\Cc2c(ccc3c2CCC3)C1=O`, for which the GI50 with SN12C, in the assay on PC-3, in the assay on MCF7, with ACHN, with IGROV-1 and in the assay with CCRF-CEM was > 100 µM (inactive) throughout. Besides, the GI50 with EKVX is > 100 µM (inactive); in the assay with HOP-62, 80.5 µM (inactive); in the assay on UO-31, > 100 µM (inactive); with HT-29, > 100 µM (inactive); in the assay with M14, > 100 µM (inactive); in the assay with MOLT-4, > 100 µM (inactive). Besides, the GI50 in the assay on NCI-H23, with RXF 393, in the assay on SF-539, in the assay on SW-620, in the assay with Hs-578T and in the assay on Malme-3M was > 100 µM (inactive) in each case. In addition, the GI50 in the assay with LOX IMVI is > 100 µM (inactive).
Consider `CC(C)CCCC(C)[C@H]1CC[C@H]2n3c(nc4ccccc43)CCC[C@]12C` (stereo not given in full), for which the GI50 was 15.9 µM (inactive) with SN12C; 17.1 µM (inactive) in the assay on SK-OV-3; 18.6 µM (inactive) in the assay with PC-3; 14.2 µM (inactive) in the assay with MCF7; 17 µM (inactive) with IGROV-1; 18.3 µM (inactive) in the assay with CCRF-CEM. For the same compound, the GI50 is 20.7 µM (inactive) with HOP-62; 14.3 µM (inactive) with UO-31; 8.79 µM (inactive) in the assay on HT-29; 16.2 µM (inactive) in the assay on M14; 16.1 µM (inactive) with MOLT-4; 16.9 µM (inactive) with NCI-H23. Also, the GI50 in the assay on RXF 393 was 16.4 µM (inactive); in the assay on SF-539, 18.8 µM (inactive); in the assay with SW-620, 17.7 µM (inactive); in the assay with Hs-578T, 26.9 µM (inactive); with Malme-3M it was 21.9 µM (inactive); in the assay on LOX IMVI, 32.7 µM (inactive).
